# From publication PMC8286840, “Identifying SARS-CoV-2 antiviral compounds by screening for small molecule inhibitors of Nsp3 papain-like protease” (Biochemical Journal, 2021)
# Structures can show the parent of a compound that is named as a salt. Where two headings read alike, the source gives them in different places. Where a SMILES comes first, the peptide text is derived from it.
# Key:
# [1] = target: T1, SARS-CoV-2 PLpro (nsp3 1564–1878) (Severe acute respiratory syndrome coronavirus 2, UniProt P0DTD1); assay: biochemical; parameters: FRET-quenched peptide (Pro3) cleavage by PLpro, 10 min pre-incubation, slope over 20 min, normalised to no-compound control; conditions: high concentration screen, read-out: % of control remaining
# [2] = target: T1, SARS-CoV-2 PLpro (nsp3 1564–1878); assay: biochemical; parameters: FRET-quenched peptide (Pro3) cleavage by PLpro, 10 min pre-incubation, slope over 20 min, normalised to no-compound control; conditions: low concentration screen, read-out: % of control remaining
smiles,measurement,setting,value
Nc1ccccc1C(=O)C[C@H](N)C(=O)O [L-Kynurenine],remaining activity at 3.75 µM,[1]; Well no.=7221,92%
same,remaining activity at 1.25 µM,[2]; Well no.=7221,95.5%
C[C@H](O)C(=O)O [L-Lactic acid],remaining activity at 3.75 µM,[1]; Well no.=7395,106%
same,remaining activity at 1.25 µM,[2]; Well no.=7395,104%
CS(=N)(=O)CC[C@H](N)C(=O)O (stereo partly drawn) [L-Methionine sulfoximine],remaining activity at 3.75 µM,[1]; Well no.=1120,99.8%
same,remaining activity at 1.25 µM,[2]; Well no.=1120,96.3%
N[C@@H](Cn1ccc(=O)c(O)c1)C(=O)O [L-Mimosine],remaining activity at 3.75 µM,[1]; Well no.=3819,94.6%
same,remaining activity at 1.25 µM,[2]; Well no.=3819,92.9%
CC(N)=NCCC[C@H](N)C(=O)O [L-N5-(1-Iminoethyl)ornithine hydrochloride],remaining activity at 3.75 µM,[1]; Well no.=967,101%
same,remaining activity at 1.25 µM,[2]; Well no.=967,101%
CCCCCCCCCCCCCCCC(=O)N[C@@H](COP(=O)(O)O)C(=O)O [L-NASPA],remaining activity at 3.75 µM,[1]; Well no.=4499,94.8%
same,remaining activity at 1.25 µM,[2]; Well no.=4499,91.6%
CCCC[C@H](N)C(=O)O [L-Norleucine],remaining activity at 3.75 µM,[1]; Well no.=7733,106%
same,remaining activity at 1.25 µM,[2]; Well no.=7733,103%
CC(C)(S)[C@H](N)C(=O)O [L-Penicillamine],remaining activity at 3.75 µM,[1]; Well no.=3332,99.5%
same,remaining activity at 1.25 µM,[2]; Well no.=3332,100%
O=C(O)[C@@H]1CCCN1 [L-Proline],remaining activity at 3.75 µM,[1]; Well no.=7737,108%
same,remaining activity at 3.75 µM,[1]; Well no.=8324,97.3%
same,remaining activity at 1.25 µM,[2]; Well no.=7737,105%
same,remaining activity at 1.25 µM,[2]; Well no.=8324,101%
O=C1CC[C@@H](C(=O)O)N1 [L-Pyroglutamic acid],remaining activity at 3.75 µM,[1]; Well no.=6783,104%
same,remaining activity at 1.25 µM,[2]; Well no.=6783,102%
C[Se]CC[C@H](N)C(=O)O [L-SelenoMethionine],remaining activity at 3.75 µM,[1]; Well no.=6681,103%
same,remaining activity at 1.25 µM,[2]; Well no.=6681,106%
N[C@@H](CO)C(=O)O [L-Serine],remaining activity at 3.75 µM,[1]; Well no.=7695,110%
same,remaining activity at 1.25 µM,[2]; Well no.=7695,105%
CCNC(=O)CC[C@H](N)C(=O)O [L-Theanine],remaining activity at 3.75 µM,[1]; Well no.=3522,99%
same,remaining activity at 1.25 µM,[2]; Well no.=3522,97.3%
N[C@@H](Cc1c[nH]c2ccccc12)C(=O)O [L-Tryptophan],remaining activity at 3.75 µM,[1]; Well no.=1471,98.2%
same,remaining activity at 3.75 µM,[1]; Well no.=7361,100%
same,remaining activity at 1.25 µM,[2]; Well no.=1471,96.7%
same,remaining activity at 1.25 µM,[2]; Well no.=7361,100%
CC(C)[C@H](N)C(=O)N[C@@H](Cc1ccccc1)C(=O)O [L-Valyl-L-phenylalanine] (H-Val-Phe-OH),remaining activity at 3.75 µM,[1]; Well no.=8650,101%
same,remaining activity at 1.25 µM,[2]; Well no.=8650,103%
C=CC[C@H](N)C(=O)O [L-allylglycine],remaining activity at 3.75 µM,[1]; Well no.=292,91.8%
same,remaining activity at 1.25 µM,[2]; Well no.=292,91.4%
C[C@](N)(Cc1ccc(O)c(O)c1)C(=O)O [L-alpha-Methyl DOPA],remaining activity at 3.75 µM,[1]; Well no.=1039,98.3%
same,remaining activity at 1.25 µM,[2]; Well no.=1039,97.7%
C[C@](N)(Cc1ccc(O)cc1)C(=O)O [L-alpha-Methyl-p-tyrosine],remaining activity at 3.75 µM,[1]; Well no.=843,106%
same,remaining activity at 1.25 µM,[2]; Well no.=843,104%
O=C(O)[C@@H]1CCN1 [L-azetidine-2-carboxylic acid],remaining activity at 3.75 µM,[1]; Well no.=103,104%
same,remaining activity at 1.25 µM,[2]; Well no.=103,105%
C[N+](C)(C)C[C@H](O)CC(=O)[O-] [L-carnitine],remaining activity at 3.75 µM,[1]; Well no.=8100,104%
same,remaining activity at 1.25 µM,[2]; Well no.=8100,106%
N[C@@H](Cc1cc(I)c(Oc2cc(I)c(O)c(I)c2)c(I)c1)C(=O)O [L-thyroxine],remaining activity at 3.75 µM,[1]; Well no.=2298,88.2%
same,remaining activity at 3.75 µM,[1]; Well no.=7299,105%
same,remaining activity at 1.25 µM,[2]; Well no.=2298,86.3%
same,remaining activity at 1.25 µM,[2]; Well no.=7299,102%
O=C(Nc1cnc(-c2ccncc2F)c(-c2cccnc2)n1)C1CC1 [LAS101057],remaining activity at 3.75 µM,[1]; Well no.=8599,103%
same,remaining activity at 1.25 µM,[2]; Well no.=8599,105%
O=C(c1cn(Cc2cncn2Cc2ccc(Br)cc2)cc1-c1cccc2ccccc12)N1CCOCC1 [LB42708],remaining activity at 3.75 µM,[1]; Well no.=8766,91.4%
same,remaining activity at 1.25 µM,[2]; Well no.=8766,99.3%
N#Cc1ccc([C@H]2CCc3cncn32)c(F)c1 [LCI699],remaining activity at 3.75 µM,[1]; Well no.=8526,98.2%
same,remaining activity at 1.25 µM,[2]; Well no.=8526,98.2%
CN[C@@H](C)C(=O)N[C@H](C(=O)N1CCC[C@H]1c1nc(C(=O)c2ccc(F)cc2)cs1)C1CCCCC1 [LCL161],remaining activity at 3.75 µM,[1]; Well no.=6594,94.5%
same,remaining activity at 1.25 µM,[2]; Well no.=6594,91.2%
c1ccc2c(-c3cnn4cc(-c5ccc(N6CCNCC6)cc5)cnc34)ccnc2c1 [LDN193189],remaining activity at 3.75 µM,[1]; Well no.=4956,97.7%
same,remaining activity at 1.25 µM,[2]; Well no.=4956,99.3%
CC(=O)O/N=C1\C(=O)N(Cc2cc(Cl)ccc2Cl)c2ccc(Cl)cc21 [LDN-57444],remaining activity at 3.75 µM,[1]; Well no.=5908,91.7%
same,remaining activity at 1.25 µM,[2]; Well no.=5908,94.9%
CN1CCc2ccccc2Cc2[nH]c3ccccc3c2CC1 [LE 300],remaining activity at 3.75 µM,[1]; Well no.=1027,101%
same,remaining activity at 1.25 µM,[2]; Well no.=1027,101%
"C/C(O)=C(\C#N)C(=O)Nc1cc(Br)ccc1Br [LFM-A13 - 2-Cyano-N-(2,5-dibromophenyl)-3-hydroxy-2-butenamide]",remaining activity at 3.75 µM,[1]; Well no.=2384,102%
same,remaining activity at 1.25 µM,[2]; Well no.=2384,101%
C/C(O)=C(\C#N)C(=O)Nc1cc(Br)ccc1Br [LFM-A13],remaining activity at 3.75 µM,[1]; Well no.=789,97.7%
same,remaining activity at 1.25 µM,[2]; Well no.=789,99.1%
Clc1ccc(Nc2nc3ccccc3c3nc(C4CCCCC4)[nH]c23)cc1Cl [LUF6000],remaining activity at 3.75 µM,[1]; Well no.=8661,93.1%
same,remaining activity at 1.25 µM,[2]; Well no.=8661,93.9%
CC1(C)C(=O)N(CCN2CCC(C(=O)c3ccc(F)cc3)CC2)c2ccccc21 [LY310762],remaining activity at 3.75 µM,[1]; Well no.=7237,100%
same,remaining activity at 1.25 µM,[2]; Well no.=7237,102%
CCc1c(CC(N)=O)c2cc(OCCCP(=O)(O)O)ccc2n1Cc1ccccc1 [LY311727],remaining activity at 3.75 µM,[1]; Well no.=5502,109%
same,remaining activity at 1.25 µM,[2]; Well no.=5502,102%
C[C@H](NC(=O)[C@@H](O)c1cc(F)cc(F)c1)C(=O)N[C@@H]1C(=O)N(C)c2ccccc2-c2ccccc21 [LY411575],remaining activity at 3.75 µM,[1]; Well no.=4689,101%
same,remaining activity at 1.25 µM,[2]; Well no.=4689,102%
O=C1NC(=O)C(c2cnc3ccccn23)=C1c1cn2c3c(cc(F)cc13)CN(C(=O)N1CCCCC1)CC2 [LY2090314],remaining activity at 3.75 µM,[1]; Well no.=5645,98.2%
same,remaining activity at 1.25 µM,[2]; Well no.=5645,98.7%
c1ccc(-c2nn3c(c2-c2ccnc4cc(OCCN5CCOCC5)ccc24)CCC3)nc1 [LY2109761],remaining activity at 3.75 µM,[1]; Well no.=4685,103%
same,remaining activity at 1.25 µM,[2]; Well no.=4685,103%
Cc1cccc(-c2nn3c(c2-c2ccnc4ccc(C(N)=O)cc24)CCC3)n1 [LY2157299],remaining activity at 3.75 µM,[1]; Well no.=4856,98.9%
same,remaining activity at 1.25 µM,[2]; Well no.=4856,99.9%
